In publication PMC12332266 (Frontiers in Pharmacology, 2025):
Read-outs that look alike come from different tables or passages of the source.

Tests used:
[1] = test system: hiPSC-CM (iCell Cardiomyocytes^2); assay: RTCA CardioECR assessment (impedance and electrophysiology parameters); conditions: hiPSC-CM
Method in brief: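 iCell^2 cardiomyocytes on fibronectin-coated ePlates monitored continuously by impedance for cell index, beating rate and amplitude. Field potential duration and spike amplitude were recorded from day 4–6 after monolayer formation. Data were double-normalized to DMSO control and baseline, with variability given as SD.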

[2] = test system: hiPSC-CM (iCell Cardiomyocytes^2); assay: Intracellular miRNA expression by RT-qPCR in hiPSC-CM pellets after 72-hour treatment; conditions: for fold induction at 0.3 µM / fold induction at 1 µM / fold induction at 3 µM / fold induction at 10 µM: Homo sapiens
Method in brief: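 After 72-hour treatment and RTCA CardioECR assessment, total RNA from hiPSC-CM pellets was reverse transcribed, pre-amplified and quantified by TaqMan RT-qPCR against a 17-miRNA panel. Triplicates were pooled, so no statistical analysis was performed.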

[3] = ref extensive literature search, cited from earlier work
[4] = 72-hour treatment, lowest concentration causing at least 20% change from baseline
[5] = 72 h, read-out: hsa-miR-7-5p fold change
[6] = 72 h, read-out: hsa-miR-29a-5p fold change
[7] = 72 h, read-out: hsa-miR-146b-5p fold change
[8] = 72 h, read-out: hsa-miR-187-3p fold change
[9] = 72-hour treatment, at least 20% change, Supplementary Table 1

O=c1[nH]cc(F)c(=O)[nH]1 [5-FluoroUracil]
Cell index (CI) MEC [1, 4]: ND (ND – not detected, magnitude of change was lower than 20%) | changes in CI or BR and miRNA expression, in words ([1]; 72 h, RTCA CardioECR and intracellular miRNA compared): did not induce either changes in CI or BR above 20% or miRNA expression above 2-fold change | RTCA, MEC (CI) ([1]; change ≥20%, Table 2): ND (ND – not detected, magnitude of change was lower than 20% for CI/BR) | intracellular miRNA upregulation in hiPSC-CM, in words [2]: smallest fold change | fold induction at 0.3 µM [2, 5]: 0.7 | fold induction at 1 µM [2, 5]: 0.5 | fold induction at 3 µM [2, 5]: 0.5 | fold induction at 10 µM [2, 5]: 0.7 | fold induction at 0.3 µM [2, 6]: 0.6 | fold induction at 1 µM [2, 6]: 0.5 | fold induction at 3 µM [2, 6]: 0.5 | fold induction at 10 µM [2, 6]: 0.8 | fold induction at 0.3 µM [2, 7]: 0.6 | fold induction at 1 µM [2, 7]: 0.3 | fold induction at 3 µM [2, 7]: 0.3 | fold induction at 10 µM [2, 7]: 1.6 | fold induction at 0.3 µM [2, 8]: 1.2 | fold induction at 1 µM [2, 8]: 1.2 | fold induction at 3 µM [2, 8]: 1.1 | fold induction at 10 µM [2, 8]: 0.5 | Cmax total ([3]; Supplementary Table 1): 4.6 µM | Cmax total ([3]; Table 1): 4.60 µM

CC(C)C[C@H](NC(=O)[C@H](CCc1ccccc1)NC(=O)CN1CCOCC1)C(=O)N[C@@H](Cc1ccccc1)C(=O)N[C@@H](CC(C)C)C(=O)[C@@]1(C)CO1 [Carfilzomib]
effect on BR at the lowest concentration tested ([1]; 72-hour treatment): quiescence (beat stop) | Field Potential Duration MEC ([1]; 72-hour treatment, at least 10% change): 0.3 µM | Contractility Amplitude MEC ([1]; 72-hour treatment, at least 20% change): 0.3 µM | Beating Rate MEC [1, 9]: 0.3 µM | Cell Index MEC [1, 9]: 0.3 µM | Spike Amplitude (SA) MEC ([1]; 72-hour treatment, at least 40% change): 0.3 µM | Beating rate (BR) MEC [1, 4]: 0.3 µM | Cell index (CI) MEC [1, 4]: 0.3 µM | RTCA, MEC (BR) ([1]; change ≥20%, Table 2): 0.3 µM (CI, BR (Q)) | RTCA, MEC (CI) ([1]; change ≥20%, Table 2): 0.3 µM (CI, BR (Q)) | hsa-miR-7-5p fold change, intracellular ([2]; 0.3 µM, 72 h): 8.1 | hsa-miR-29a-5p fold change, intracellular ([2]; 0.3 µM, 72 h): 0.4 | hsa-miR-96-5p fold change, intracellular ([2]; 0.3 µM, 72 h): 21.0 | hsa-miR-126-3p fold change, intracellular ([2]; 0.3 µM, 72 h): 2.1 | hsa-miR-133b fold change, intracellular ([2]; 0.3 µM, 72 h): 5.5 | hsa-miR-146b-5p fold change, intracellular ([2]; 0.3 µM, 72 h): 0.3 | hsa-miR-182-5p fold change, intracellular ([2]; 0.3 µM, 72 h): 12.6 | hsa-miR-185-3p fold change, intracellular ([2]; 0.3 µM, 72 h): 1.1 | hsa-miR-187-3p fold change, intracellular ([2]; 0.3 µM, 72 h): 0.7 | hsa-miR-208b-3p fold change, intracellular ([2]; 0.3 µM, 72 h): 1.1 | hsa-miR-365a-5p fold change, intracellular ([2]; 0.3 µM, 72 h): 0.2 | hsa-miR-7-5p fold change, intracellular ([2]; 1 µM, 72 h): 1.3 | hsa-miR-29a-5p fold change, intracellular ([2]; 1 µM, 72 h): 1.4 | hsa-miR-96-5p fold change, intracellular ([2]; 1 µM, 72 h): 5.6 | hsa-miR-126-3p fold change, intracellular ([2]; 1 µM, 72 h): 0.9 | hsa-miR-133b fold change, intracellular ([2]; 1 µM, 72 h): 0.3 | hsa-miR-146b-5p fold change, intracellular ([2]; 1 µM, 72 h): 0.08 | hsa-miR-182-5p fold change, intracellular ([2]; 1 µM, 72 h): 20.8 | hsa-miR-185-3p fold change, intracellular ([2]; 1 µM, 72 h): 9.0 | hsa-miR-187-3p fold change, intracellular ([2]; 1 µM, 72 h): 1.7 | hsa-miR-208b-3p fold change, intracellular ([2]; 1 µM, 72 h): 1.0 | hsa-miR-365a-5p fold change, intracellular ([2]; 1 µM, 72 h): 0.01 | hsa-miR-7-5p fold change, intracellular ([2]; 3 µM, 72 h): 2.3 | hsa-miR-96-5p fold change, intracellular ([2]; 3 µM, 72 h): 10.7 | hsa-miR-126-3p fold change, intracellular ([2]; 3 µM, 72 h): 0.5 | hsa-miR-133b fold change, intracellular ([2]; 3 µM, 72 h): 0.4 | hsa-miR-146b-5p fold change, intracellular ([2]; 3 µM, 72 h): 0.06 | hsa-miR-182-5p fold change, intracellular ([2]; 3 µM, 72 h): 14.0 | hsa-miR-185-3p fold change, intracellular ([2]; 3 µM, 72 h): 3.3 | hsa-miR-187-3p fold change, intracellular ([2]; 3 µM, 72 h): 2.1 | hsa-miR-208b-3p fold change, intracellular ([2]; 3 µM, 72 h): 1.0 | hsa-miR-365a-5p fold change, intracellular ([2]; 3 µM, 72 h): 0.04 | hsa-miR-7-5p fold change, intracellular ([2]; 10 µM, 72 h): 3.8 | hsa-miR-29a-5p fold change, intracellular ([2]; 10 µM, 72 h): 0.8 | hsa-miR-96-5p fold change, intracellular ([2]; 10 µM, 72 h): 1.6 | hsa-miR-126-3p fold change, intracellular ([2]; 10 µM, 72 h): 0.4 | hsa-miR-133b fold change, intracellular ([2]; 10 µM, 72 h): 0.3 | hsa-miR-146b-5p fold change, intracellular ([2]; 10 µM, 72 h): 0.01 | hsa-miR-182-5p fold change, intracellular ([2]; 10 µM, 72 h): 5.7 | hsa-miR-185-3p fold change, intracellular ([2]; 10 µM, 72 h): 0.2 | hsa-miR-187-3p fold change, intracellular ([2]; 10 µM, 72 h): 20.5 | hsa-miR-208b-3p fold change, intracellular ([2]; 10 µM, 72 h): 1.0 | hsa-miR-365a-5p fold change, intracellular ([2]; 10 µM, 72 h): 0.02 | miRNAs upregulated at the MEC overall (hiPSC-CM pellet) ([2]; fold change ≥2, 72 h): miR-126-3p, miR-133b, miR-182-5p, miR-184, miR-187-3p, miR-7-5p, miR-96-5p | miRNAs hiPSC-CM pellet, MEC overall ([2]; lowest concentration tested which produced miRNA upregulation (fold change ≥2), 72 h): 0.3 µM | Cmax total ([3]; Supplementary Table 1): 5.88 µM | Cmax total ([3]; Table 1): 5.88 µM
